System: bacillus used as an index (biological-indicator)
Conditions: 15 g of 35% hydrogen peroxide solution vaporized in 3 minutes, about 0.8 m^3 isolator, peak about 1300 ppm, closed state until 1200 seconds
Description: In this Example, the above-mentioned injector 14 is controlled so that hydrogen peroxide solution is continuously dropped for 3 minutes at a flow rate of 5 g/min, and the dropped hydrogen peroxide solution changes to hydrogen peroxide vapor by flash evaporation in an evaporator 12 in an instant.

SMILES: OO [hydrogen peroxide vapor, hydrogen peroxide]
- effect of sterilization (culturing the biological-indicator after sterilization): multiplication of the bacillus used as an index is not recognized

— patent US20060008378A1, “Sterilization method” (priority 2004, published 2006)
